These results are taken from patent US6376511B2, “8-aminoquinolines” (The University of Mississippi, priority 1999, dated 2002).

For assay [1], the system named is Plasmodium berghei KBG-173. The format is in vivo. Particulars: for Mice surviving 60 days/Mice infected and treated: P. berghei in mice; for Parasitemia Day 6: percentage of red blood cells with parasites, control 31.8. The protocol:
Blood Schizontocidal Test (Trophozoite-Induced Plasmodium berghei Infection in mice University of Miami, Test System: Thompson Test
Drugs were mixed in 0.5% hydroxycellulose 0.1% Tween 80 and administered orally b.i.d. on days 3, 4 and 5 postinfection. CD-1 male or female mice, 5 weeks of age, were infected with 5×10^4 parasitized erythrocytes of Plasmodium berghei KBG-173 mm strain. Blood films were taken on day +6 and weekly thereafter until day +60. Parasitemias were calculated and SD90 value (dose suppressing 90% of the parasites in treated groups compared with the infected non-treated controls) on day +6 postinfection. Mortality data was tabulated for 60 days at which time all mice surviving that were blood film negative were considered cured.
[…] The activity of these compounds were compared with the untreated control and “racemate” which is a mixture of equal amount of each enantiomer X and Y. In untreated controls, death occurs within 8-9 days. Compounds which are effective against Plasmodium berghei infection increase the mean survival time of the infected animals when compared with the untreated controls. Mice that survive after thirty days and are free of parasites in blood are considered cured.
Efficacy of the drug is determined by the number of cures at the end of a 30 day period and the increase in mean survival time over the control (ΔMST). The effect of the test drugs also could be determined by the reduction of the parasitemia (percentage of the red blood cells detected with the parasites) over the untreated control on day 6, one day after the treatment is completed. Both these methods yield virtually identical results. If the dose of test compounds are inadequate, after initial clearance, residual parasites will multiply and relapses will occur within thirty days. The blood schizontocidal activities (suppressive antimalarial) of X, Y, and racemate against P. berghei in mice are shown in Table 11.

In assay [2] the test system is trypanosome isolate KETRI 243As103. Kind of assay: Antitrypanosomal activity, trypanosome isolates grown as blood forms in HMI-18. The format is cell-based, Trypanosoma. Particulars: KETRI 243As103, after 48 h, 20% horse serum; succinate. The protocol: (§1) Compounds were tested vs. trypanosome isolates grown as blood forms in HMI-18 (Hirumi H., Hirumi, K. 1989. Continuous Cuitivation of Trypanosoma brucei bloodstream forms in a medium containing a low concentration of serum portein without feeder cell layers. J. Parasitol. 75:985-989) containing 20% horse serum.

For assay [3], the system named is trypanosome isolate KETRI 269. The assay is described as above. To be noted: KETRI 269, after 48 h, 20% horse serum, read-out: IC50. The format is cell-based, Trypanosoma. The protocol:
as §1

Assay [4] concerns trypanosome isolate KETRI 243. Described as above. The format is cell-based, Trypanosoma. Particulars: KETRI 243, after 48 h, 20% horse serum; succinate; read-out: IC50. The protocol:
as §1

Assay [5] relates to trypanosome isolate EATRO Lab 110. The assay is described as above. In kind it is cell-based, Trypanosoma. Particulars: EATRO Lab 110, after 48 h, 20% horse serum, read-out: IC50. The protocol: as §1
Assay [6] relates to Plasmodium berghei KBG-173. Kind of assay: Prophylactic test, Plasmodium berghei infection in mice, oral. In kind it is in vivo. Particulars: single dose of 2 mg/kg. From the text: CD-I male or female mice, 5 weeks of age, were infected with 5×10^4 parasitized erythrocytes ot Plasmodium berghei KBG-173 mm strain. Blood films were taken on day +6 and weekly thereafter until day+30. […]

The test system of another assay is Pneumocystis carinii. Kind of assay: Anti-Pneumocystis carinii test (induced Pneumocystis carinii infection in immunosuppressed mice), oral. In kind it is in vivo. Particulars: for Giemsa Stain Score / Silver stain Score / Giemsa Stain I/T (animals with organism after treatment/animals treated) / Silver stain I/T (animals with organism after treatment/animals treated): mice; for Giemsa Stain Score / Silver stain Score: mean score on 0 to 5+ scale; for Number of animals with organism after treatment/Number of animals treated, Giesma Stain: mice (Table 8).

The next assay relates to L. donovani Chagasi PP75. The assay is described as follows: In vitro anti-Leishmania activity, Giemsa counts. The format is cell-based. To be noted: 1350 ng/mL; control 6.35.
For another assay, the system named is P. cynomolgi. Particulars: rhesus monkey, cited from earlier work.
The mark [7] stands for this setting: oral dose 1 mg/kg/day (total dose 3 mg/kg).
Where [8] appears, read: oral dose 4 mg/kg/day (total dose 12 mg/kg).
The mark [9] stands for this setting: oral dose 16 mg/kg/day (total dose 48 mg/kg).
Setting [10] is: oral dose 64 mg/kg/day (total dose 192 mg/kg).
Where [11] appears, read: 0.25 mg/kg/day, 0.75 mg/kg total, succinate.
The mark [12] stands for this setting: 1 mg/kg/day, 3 mg/kg total, succinate.
The mark [13] stands for this setting: 4 mg/kg/day, 12 mg/kg total, succinate.
Where [14] appears, read: oral 0.25 mg/kg/day (x21), succinate, 0.25 mg/kg/day.

SMILES strings stand for the structures. Where two headings read alike, the source gives them in different places.

In general, IC50 refers to the concentration that inhibits the measured activity by half.

As for `COc1cc(NC(C)CCCN)c2nccc(C)c2c1Oc1cccc(C(F)(F)F)c1` (stereo not shown) [WR-225,448, reference compound], the “Mice surviving 60 days/Mice infected and treated” value is 7/7 in assay [1] (setting [7]), 7/7 in [1] (setting [8]), 7/7 in [1] (setting [9]) and 4/7 in assay [1] (setting [10]).

In the case of `COc1cc(NC(C)CCCN)c2nccc(C)c2c1Oc1ccc(Cl)c(Cl)c1` (single isomer, unassigned; (+)) [X, (+) 8-[(4-amino-1-methylbutyl)amino]-5-(3,4-dichlorophenoxy)-6-methoxy-4-methylquinoline succinate], the “Parasitemia Day 6” value in assay [1] (setting [11]) is on record as 28.2; in assay [1] (setting [12]), 27.4; in assay [1] (setting [13]), 1.1. Besides, the “Mice Alive Day 26” value in [1] (setting [11]), in assay [1] (setting [12]) and in assay [1] (setting [13]) was 0/5 in each case. For the same compound, the “ΔMST (increase in mean survival time over the control)” value is 0 days in assay [1] (setting [11]); 6 days in [1] (1 mg/kg/day, 3 mg/kg total); 11 days in assay [1] (4 mg/kg/day, 12 mg/kg total). Besides, the IC50 in [2] amounted to 36 µM; in assay [3] (Trypanosoma, 48 h), 37 µM; in [4], 34 µM; in [5] (Trypanosoma, 48 h), 8.3 µM. The “Mice surviving day 60/Mice infected and treated” value was 0/5 in assay [6] (day of treatment 2 (Table 5), listed as X Enantiomer, succinate, 2 mg/kg); 0/5 in assay [6] (day of treatment -2 (Table 5), listed as X Enantiomer, succinate, 2 mg/kg); 0/5 in [6] (day of treatment -3 (Table 5)); 0/5 in [6] (day of treatment -4 (Table 5)); 0/5 in assay [6] (day of treatment -5 (Table 5)). Moreover, the “Giemsa Stain Score” value was found to be 0.55 ± 0.16 in the assay with Pneumocystis carinii (setting [14]), 0.20 ± 0.10 in the assay on Pneumocystis carinii (oral 0.5 mg/kg/day (x21)), 0.0 with Pneumocystis carinii (oral 1 mg/kg/day (x21)) and 0.0 with Pneumocystis carinii (oral 5 mg/kg/day (x21)). Moreover, the “Silver stain Score” value in the assay with Pneumocystis carinii (setting [14]) came to 1.15 ± 0.16; with Pneumocystis carinii (oral 0.5 mg/kg/day (x21)), 0.1 ± 0.1; in the assay on Pneumocystis carinii (oral 1 mg/kg/day (x21)), 0.0; in the assay with Pneumocystis carinii (oral 5 mg/kg/day (x21)) it was 0.0. For the same compound, the “Giemsa Stain I/T (animals with organism after treatment/animals treated)” value in the assay on Pneumocystis carinii (setting [14]) is 6/10; in the assay with Pneumocystis carinii (oral 0.5 mg/kg/day (x21)), 2/10; in the assay on Pneumocystis carinii (oral 1 mg/kg/day (x21)) it was 0/10; in the assay on Pneumocystis carinii (oral 5 mg/kg/day (x21)), 0/10. Also, the “Silver stain I/T (animals with organism after treatment/animals treated)” value with Pneumocystis carinii (setting [14]) is listed as 10/10; in the assay with Pneumocystis carinii (oral 0.5 mg/kg/day (x21)), 2/10; with Pneumocystis carinii (oral 1 mg/kg/day (x21)), 0/10; with Pneumocystis carinii (oral 5 mg/kg/day (x21)), 0/10.

Consider `O=C1C(O)=C([C@H]2CC[C@H](c3ccc(Cl)cc3)CC2)C(=O)c2ccccc21` [Atovaquone, reference compound], for which the “Giemsa Counts” value in the assay on L. donovani Chagasi PP75 was 5.05 ± 0.21.

`COc1cc(C)c2c(Oc3cccc(C(F)(F)F)c3)c(OC)cc(NC(C)CCCN)c2n1` (stereo not shown) [WR-238,605, reference compound]: the “Mice surviving 60 days/Mice infected and treated” value in [1] (setting [7]) was 0/7; in [1] (setting [8]) it was 1/7; in assay [1] (setting [9]), 7/7; in assay [1] (setting [10]), 1/7.

Consider `COc1cc(NC(C)CCCN)c2ncccc2c1` (stereo not shown) [Primaquine, reference compound], for which the “Monkeys infected and treated/cured” value in the assay with P. cynomolgi (0.316 mg/kg/day x7, orally) was 0/2; with P. cynomolgi (1.0 mg/kg/day x7, orally) it was 1/2. The “Mice surviving 60 days/Mice infected and treated” value in assay [1] (setting [7]) is on record as 0/7; in assay [1] (setting [8]), 0/7; in assay [1] (setting [9]), 1/7; in assay [1] (setting [10]), 3/7. Further, the “Number of animals with organism after treatment/Number of animals treated, Giesma Stain” value was 10/10 with Pneumocystis carinii (oral 5 mg/kg/day (x21), 5 mg/kg/day) and 5/10 with Pneumocystis carinii (oral 10 mg/kg/day (x21), 10 mg/kg/day).

For `CCCCCOc1c(OC)cc(NC(C)CCCN)c2nccc(C)c12` (stereo not shown) [Compound 4], the “Mice surviving 60 days/Mice infected and treated” value in [1] (setting [7]) is listed as 7/7; in assay [1] (setting [8]) it was 7/7; in assay [1] (setting [9]) it was 4/7; in [1] (setting [10]), 0/7.

As for `COc1cc(NC(C)CCCN)c2nccc(C)c2c1Oc1ccc(Cl)c(Cl)c1` (single isomer, unassigned; (-)) [Y, (−)-8-[(4-amino-1-methylbutyl)amino]-5-(3,4-dichlorophenoxy)-6-methoxy-4-methylquinoline succinate], the results for the “Parasitemia Day 6” value in assay [1] (setting [11]), in assay [1] (setting [12]) and in assay [1] (setting [13]) were 0.2, 0.0 and 0.0, respectively. The “Mice Alive Day 26” value in assay [1] (setting [11]) is given as 0/0; in assay [1] (setting [12]), 4/5; in [1] (setting [13]), 5/5. Moreover, the figures for the “ΔMST (increase in mean survival time over the control)” value in [1] (setting [11]) and in assay [1] (setting [12]) were 11.6 days and 13.6 days, respectively. For the same compound, the IC50 in assay [2] came out at 17.5 µM; in assay [3] (succinate), 27 µM; in [4] it was 11 µM; in assay [5] (succinate) it was 13.5 µM. Further, the “Mice surviving day 60/Mice infected and treated” value in [6] (day of treatment 2 (Table 5), listed as Y Enantiomer, succinate, 2 mg/kg) is 5/5; in [6] (day of treatment -2 (Table 5), listed as Y Enantiomer, succinate, 2 mg/kg) it was 1/5; in [6] (day of treatment -3 (Table 5)) it was 0/5; in assay [6] (day of treatment -4 (Table 5)) it was 0/5; in [6] (day of treatment -5 (Table 5)) it was 0/5. In the assay on Pneumocystis carinii ((−) versus (+) enantiomer of DN3-27-1), the “activity in the mouse model of PCP, enantiomer comparison” value is recorded as “significantly greater activity than the (+) enantiomer”. For the same compound, the “Giemsa Stain Score” value in the assay with Pneumocystis carinii (setting [14]), with Pneumocystis carinii (oral 1 mg/kg/day (x21)) and with Pneumocystis carinii (oral 5 mg/kg/day (x21)) was 0.0 in each case. Also, the “Silver stain Score” value in the assay on Pneumocystis carinii (setting [14]), in the assay with Pneumocystis carinii (oral 1 mg/kg/day (x21)) and with Pneumocystis carinii (oral 5 mg/kg/day (x21)) was 0.0 each time. Moreover, the “Giemsa Stain I/T (animals with organism after treatment/animals treated)” value in the assay on Pneumocystis carinii (setting [14]), in the assay on Pneumocystis carinii (oral 1 mg/kg/day (x21)) and in the assay on Pneumocystis carinii (oral 5 mg/kg/day (x21)) was 0/10 each time. Besides, the “Silver stain I/T (animals with organism after treatment/animals treated)” value with Pneumocystis carinii (setting [14]), in the assay with Pneumocystis carinii (oral 1 mg/kg/day (x21)) and with Pneumocystis carinii (oral 5 mg/kg/day (x21)) was 0/10 each time.
